Data on six substances can be found in patent publication US7704490B2 (Institut Pasteur, priority 1998, dated 2010).

“Also recorded” adds a separate entry of the source. No end group written: not given here.

One data set has as its system mAb H2-8. Put plainly: ELISA inhibition of mAb H2-8 binding to IL-2 coated plates. The settings on record: mAb at about 50% of maximum binding, preincubated with inhibitor. Also noted: species or system mouse. The procedure:
Control is represented by non coated plates.
H2-8 was preincubated with different peptides including five decapeptides (1-10, 5-15, 10-20, 15-25, 20-30).
(ELISA stands for enzyme-linked immunosorbent assay.)

In a further data set the test system is mAb 19B11. Description: ELISA inhibition of mAb 19B11 binding to IL-2 coated plates. Also on record: species or system mouse. Particulars: control mAb.
The nature of data set [1]: Circular dichroism, α helix content. In kind it is physicochemical. Particulars: for α-helix content: isolated peptide, circular dichroism. In general terms: CD spectra are sensitive to the conformation of chiral molecules.
Data set [2] is described as follows: Sedimentation-diffusion equilibrium, quaternary structure. In kind it is physicochemical. The settings on record: concentration above 5×10^−6M. The text has this: The quaternary structure of peptide IP130 was also studied by sedimentation-diffusion equilibrium.
The subject of a further data set is TS1β cells. Put plainly: TS1β proliferation assay, activity of peptides and IL-2 muteins. Particulars: for proliferation of TS1β induced by the peptide: in the absence of IL-2. In kind it is cell-based, murine. The protocol:
Background of 1.4×10^3 cpm was subtracted. […] TS1β target cells are derived from TS1 murine cells (which only express murine IL-2Rγ), after transfection with the human IL-2Rβ gene.
The response to. IL-2 or peptide alone was substracted from that obtained from both IL-2 and peptide.
The biological activity of IL2 mutant Asp 20→Lys (□) is shown for comparison
TS1β cells were cultured (10^4 cells/well) in 96 wells in flat-bottomed microtiter plates with a final volume of 0.2 ml. […] In order to test the inhibitory effect of mAbs, different concentrations of these reagents were mixed in the culture wells with the respective lymphokines for 30 min at low temperature before adding the cells. […] Cultures were pulsed with 0.5 μCi/well of (3H) TdR after 36 h of incubation and harvested 15 h later.

The test system of data set [3] is classical murine cell lines (C30-1, CTLL, HT-2, . . . ). Description: IP130 effects on classical murine IL-2 assay cell lines. Particulars: cells without human IL-2Rβ. In kind it is cell-based. The source says: IP130 acts only on cell lines expressing human IL-2Rβ. […] Furthermore anti-human IL-2Rβ blocking mAb neutralizes the effects of IP130.
Another data set has as its system TS1 cells. Put plainly: IP130 proliferation of TS1 cells with or without human IL-2Rβ. The settings on record: with or without transfection by human IL-2Rβ gene. It counts as cell-based, murine.
For another data set, the system named is Kit 225 cell line. Description: Protein phosphorylation and c-myc induction in Kit 225 cell line. In kind it is cell-based, human. The source says:
IP130 induces SHC protein phosphorylation. […] Kinetics of Shc phosphorylation is shown on the left. A Western blot of Shc protein is shown on the right.
Alone the peptide induces the phosphorylation of proteins on Kit 225 cell line. […] STAT-3 and STAT-5 are not activated after IP130 stimulation since IL-2Rγ is not involved in IP130 interaction with Kit 225.

A further data set deals with STAT. Description: Electrophoretic mobility shift assay of STAT activation in KIT225 nuclear extracts. It counts as cell-based, human. The settings on record: STAT-3 and STAT-5; β-casein, GAS and GIRE probes. On the technique in general: Mobility shift assays separate free from complexed probe on a gel.
For another data set, the system named is NK cells. Description: Cell cycle entry (S+G2/M) of NK cells in stimulated PBMC. In kind it is cell-based, human. The protocol: Non-specific responses (J+1 in medium) are subtracted. NK cells entry into S+G2/M phases are measured by propidium iodide and analyzed with the ModFit 2.0 software (Becton Dickinson).
Data set [4] has as its system K562 or Daudi target cells. Put plainly: Induction of LAK cells, 51Cr release lysis. It counts as cell-based, human. The settings on record: for induction of LAK cells: PBMCs stimulated 3 or 6 days, lysis of K562 and Daudi targets. The protocol:
K562 or Daudi target cells (5×103 in 0.1 ml) labeled with Na2^51CrO4 (Amersham Pharmacia Biotech) were mixed in round-bottomed microwells with an equal volume of effector cells at various E/T ratios. After 4 hours of incubation at 37° C., the plates were centrifuged at 2,000 g for 2 min, and cell-free supernatant were collected using a Luma Plate 96 cell harvester (Lulac-LSC). Supernatant radioactivity was assayed using an automated MicroBeta 1450 trilux γ-counter (Wallac). Spontaneous release was determined by incubating target cells in medium alone. Maximum release was determined by adding 0.1 ml of 1M HCl to the target cell suspension. The percentage of specific lysis was calculated as follows: 100×(experimental ^51Cr release−spontaneous release)/(maximum ^51Cr release−spontaneous ^51Cr release).

In a further data set the test system is IFN-γ production. Description: IFN-γ production. In kind it is cell-based.
The next data set concerns the target T1, IL-2Rβ (Homo sapiens, UniProt P14784).
T1 sequence (P14784 27-551): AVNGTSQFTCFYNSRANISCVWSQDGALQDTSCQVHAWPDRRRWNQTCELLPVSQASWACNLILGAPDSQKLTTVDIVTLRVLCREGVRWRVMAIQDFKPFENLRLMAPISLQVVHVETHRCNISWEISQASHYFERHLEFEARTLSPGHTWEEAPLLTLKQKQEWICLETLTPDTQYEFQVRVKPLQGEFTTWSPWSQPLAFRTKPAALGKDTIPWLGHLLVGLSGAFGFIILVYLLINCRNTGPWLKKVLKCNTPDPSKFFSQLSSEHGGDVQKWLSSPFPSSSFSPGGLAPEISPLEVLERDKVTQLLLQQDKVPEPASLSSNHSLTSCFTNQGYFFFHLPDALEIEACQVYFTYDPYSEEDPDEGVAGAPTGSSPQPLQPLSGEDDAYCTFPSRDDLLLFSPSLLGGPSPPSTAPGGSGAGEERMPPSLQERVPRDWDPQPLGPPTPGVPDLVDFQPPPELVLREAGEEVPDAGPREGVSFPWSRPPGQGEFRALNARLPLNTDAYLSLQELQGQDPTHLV
The settings on record: cited from earlier work.

A further data set concerns IL-2R. Put plainly: Affinity of IL-2 mutant for IL-2R. It counts as binding. Particulars: compared with IL-2.

In the case of APTSSSTKKTQLQLEHLLLDLQMILNGINN [IP130], in the data set on mAb H2-8, the “inhibition of the binding of mAb H2-8 to IL-2” value is “most efficient inhibitor”. Besides, the “inhibition of the binding of mAb 19B11 to IL-2” value in the data set on mAb 19B11 is given as “inhibited”. For the same substance, the “residues in an α helix configuration” value in data set [1] (20° C., phosphate buffer (20 mM, pH 7.2)) is on record as 50%. Besides, in data set [1], the α-helix content is 50%±7%. The quaternary structure result in data set [2] is reported as “most of the molecules are in a tetrameric form”. In the data set with TS1β cells (both activities at comparable concentrations), the “IC-50 of proliferation and of synergy with IL-2” value is “IC-50≅μM”. For the same substance, the “proliferation of TS1β induced by the peptide” value with TS1β cells was “stimulates the proliferation”. Besides, the “synergy with IL-2 on TS1β proliferation” value with TS1β cells (in the presence of IL-2) is on record as “strong synergy”. For the same substance, the “sensitivity of classical murine cell lines to the peptide” value in data set [3] is on record as “insensitive”. Moreover, the “proliferation of TS1 cells in the presence of IP130” value in the data set on TS1 cells is listed as “TS1 cells only proliferate after transfection by the human IL-2Rβ gene”. Besides, the c-myc induction entry with Kit 225 cell line was “observed”. In addition, in the data set on Kit 225 cell line (immunoprecipitation, blotting with mAb 4G10 (anti-Ptyr)), the “phosphorylation of IL-2Rβ” value is reported as “phosphorylated IL-2Rβ is identified”. Also, the “phosphorylation of Shc” value with Kit 225 cell line (peptide alone) is “the kinase Shc is easily recognized; also recorded: phosphorylated after a ten minute stimulation”. The STAT activation entry in the data set on STAT is given as “not activated; also recorded: does not induce STAT activity”. For the same substance, the “entry of NK cells into the cell cycle” value in the data set with NK cells is “induces NK cells to enter into the cell cycle”. The “induction of LAK cells” value in data set [4] was “able to induce LAK cells in a concentration dependent manner; also recorded: potent LAK cell response”. In [4] (day 3), the “LAK response compared with IL-2, day 3” value is given as “weaker than that of IL-2”. Besides, in [4] (day 6), the “LAK response compared with IL-2, day 6” value is “comparable”. Also, in the data set with IFN-γ production, the “induction of IFN-γ production” value is “ability to induce LAK cells and IFNγ production”.

As for “IL2 Asp 20→Lys mutant: IL-2 with substitution Asp20 by Lys [reference compound]”, the “biological activity on Ts1β cells” value in the data set on TS1β cells (5×10-3 to 10 nM, compared with IL-2 (FIG. 18)) is “clearly reduced”. In addition, the “binding to IL-2Rβ” value with IL-2Rβ was “prevents binding to IL-2Rβ”.

In the case of “IL-2 Pro125: IL-2 mutant IL-2 Pro125 (Cys→Pro) [reference compound]”, the “maximum proliferation of TS1β” value in the data set with TS1β cells (higher concentrations of mutant) is given as “without affecting the maximum proliferation”. In the data set with IL-2R, the “affinity for IL-2R” value is recorded as “slightly reduces the affinity”.

Turning to “IP131 Asp 20→Lys: Peptide 1-31 mutated at position 20 (Asp→Lys), SEQ ID NO:8 (APTSSSTKKTQLQLEHLLLKLQMILNGINNY)”, the “proliferation of TS1β induced by the peptide” value with TS1β cells is given as “maintains its inductive capacity on proliferation”. In [4], the “induction of LAK cells” value is “capacity to generate LAK cells”. Moreover, the “induction of IFN-γ production” value with IFN-γ production is “induce IFN-γ production”.

As for “peptide 1-10: synthetic IL-2 decapeptide, residues 1-10 (APTSSSTKKT-NH2; UniProt P60568 21-30, looked up, fragment)”, the “inhibition of the binding of mAb 19B11 to IL-2” value with mAb 19B11 was “inhibited”.

Turning to “peptide 1-22: synthetic IL-2 peptide, residues 1-22 (APTSSSTKKTQLQLEHLLLDLQ; UniProt P60568 21-42, looked up, fragment)”, the “inhibition of the binding of mAb 19B11 to IL-2” value in the data set on mAb 19B11 was “inhibited”. Also, the α-helix content in data set [1] is given as 13%±5%.
